Our source for the Triple point temperature values is the NIST ThermoML archive (doi:10.1016/j.jct.2007.11.001).

Numbers after ± are expanded uncertainties.

The conditions of the data set: Crystal 2; Adiabatic calorimetry.

Regarding `O=P([O-])([O-])[O-].[Cs+].[Mg+2]` [caesium-magnesium monophosphate], the Triple point temperature amounted to 235.69 ± 0.2 K.
